Consider 1 molecule from publication PMC10975434 (Pharmaceutics, 2024).

Data set [1] addresses T1, UGT2B7 (Homo sapiens, UniProt P16662).
T1 sequence (P16662 24-529): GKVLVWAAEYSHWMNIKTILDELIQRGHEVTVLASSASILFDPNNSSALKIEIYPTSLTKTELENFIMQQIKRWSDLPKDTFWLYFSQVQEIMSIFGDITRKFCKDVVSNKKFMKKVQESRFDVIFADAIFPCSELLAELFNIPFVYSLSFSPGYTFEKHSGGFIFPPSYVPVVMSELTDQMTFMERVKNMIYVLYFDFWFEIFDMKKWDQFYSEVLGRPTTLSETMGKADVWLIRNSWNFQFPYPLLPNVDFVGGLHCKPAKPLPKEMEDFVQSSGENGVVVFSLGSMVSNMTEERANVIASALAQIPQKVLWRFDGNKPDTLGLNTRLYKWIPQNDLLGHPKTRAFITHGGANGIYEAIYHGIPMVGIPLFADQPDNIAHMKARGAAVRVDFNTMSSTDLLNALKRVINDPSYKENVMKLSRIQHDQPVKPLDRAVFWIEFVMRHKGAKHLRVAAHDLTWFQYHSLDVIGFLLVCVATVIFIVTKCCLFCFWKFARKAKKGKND
Kind of data set: IC50 determination and calculated Ki, morphine glucuronidation in HLM. As to conditions: human, human liver microsomes; for IC50: IC50,u, corrected for non-specific binding with fu,inc (11-OH-THC fu,inc as surrogate for 11-COOH-THC and 7-OH-CBD).

Data set [2] deals with T2, UGT2B7 (Homo sapiens, UniProt P16662, Y268H).
T2 sequence (P16662 24-529 Y268H): T1 sequence (P16662 24-529) with Y245H
Kind of data set: Inhibition screening of morphine glucuronidation in rUGT2B7-overexpressing HEK293 cell microsomes. The conditions noted are these: rUGT-overexpressing microsomes and HLM.

For data set [3], the target named is T1, UGT2B7. In words: Inhibition screening of morphine glucuronidation in pooled human liver microsomes (HLM). As to conditions: 100 µM cannabinoid.
Data set [4] in a line: Estimated unbound maximum hepatic inlet concentration used for the static model. The conditions noted are these: human, hepatic inlet (unbound). As to the method: (8) [I]h=fu,p×Cmax+Fa ×Fg×Ka×Dose/Qh ×Rb
For the static mechanistic modeling, hepatic blood flow (Qh) and enterocyte blood flow (Qen) were set to 1500 mL/min and 300 mL/min, respectively, and the blood-to-plasma concentration ratio (RB) was set to 0.4 [55].
C௠௔௫ ,௛௘௣௔௧௜௖ ௜௡௟௘௧ ,௨ ൌ f௨,௣ ൈ ቀC௠௔௫ ൅ ிೌ ൈ ி೒ ൈ ௄ೌ ൈ஽௢௦௘ொ೓ ൈ ோ್ቁ, where fu,p (unbound fraction in plasma) wa s set

For data set [5] the following is noted: cited from earlier work.
The target of data set [6] is T2, UGT2B7. Kind of data set: in vitro.
Data set [7] has as its target T1, UGT2B7. Kind of data set: in vitro. The conditions noted are these: human liver microsomes, probe morphine […] (morphine-6-glucuronide formation). For orientation: Liver microsomes are vesicles of endoplasmic reticulum, rich in cytochrome P450 enzymes.

Substitutions are numbered along the chain they refer to.

As to `C=C(C)[C@@H]1CCC(C)=C[C@H]1c1c(O)cc(CCCCC)cc1O` [CBD, cannabidiol, reference compound], the Ki (in general, a dissociation constant, usually derived from enzyme kinetics or from competition with a known ligand) at UGT2B7 [1] (probe morphine […] (morphine-3-glucuronide formation), Calculated Ki, Morphine-3-Glucuronide, Ki=IC50/2 assuming competitive inhibition) was 4110 ± 2240 nM; on UGT2B7 [1] (probe morphine […] (morphine-6-glucuronide formation), Calculated Ki, Morphine-6-Glucuronide, Ki=IC50/2 assuming competitive inhibition), 3160 ± 1320 nM; at UGT2B7 [1] (probe morphine […] (morphine-6-glucuronide formation), Calculated Ki,u, Morphine-6-Glucuronide, Ki corrected with fu,inc), 160 ± 70 nM. Besides, the IC50 (in general, the concentration that gives 50% inhibition) at UGT2B7 [1] (probe morphine […] (morphine-3-glucuronide formation), Morphine-3-Glucuronide formation) is 420 ± 230 nM; on UGT2B7 [1] (probe morphine […] (morphine-6-glucuronide formation), Morphine-6-Glucuronide formation) it was 320 ± 130 nM; against UGT2B7 [7] it was 6300 ± 2600 nM. Also, at UGT2B7 [2], the “inhibition of UGT2B7-mediated morphine metabolism (overall, in words)” value was “strong inhibition”. The “inhibition of M3G and M6G formation in HLM (in words)” value on UGT2B7 [3] was “significant inhibition”. The Cmax (as a rule, the highest concentration seen after dosing) is 350 nM in data set [4] (inhaled or intranasal, 19 mg); 90 nM in data set [4] (po, 70 mg); 890 nM in data set [4] (po, 700 mg); 2540 nM in data set [4] (po, 2000 mg). Also, in data set [5] (after consumption), the “Cmax,u” value was 130 nM. In addition, in data set [5] (value set for the static model, ref Cox et al., 2019 [45]), the “ka (first-order absorption rate constant)” value is reported as 0.02. Besides, the inhibition – broadly, how much of the control response was suppressed – at 100 µM on UGT2B7 [6] (microsomes of HEK293 cells overexpressing recombinant UGT2B7, probe morphine […] (morphine-3-glucuronide formation)) came to 99%; on UGT2B7 [6] (microsomes of HEK293 cells overexpressing recombinant UGT2B7, probe morphine […] (morphine-6-glucuronide formation)) it was 98%.
